Results reported in US11787854B2, “Immunological targeting of pathological tau proteins” (New York University, priority 2009, dated 2023).

Assays:
JNPL3 P301L tangle mice = details: mouse, in vivo
pathological tau = test: PHF1 immunostaining of pathological tau in brain of actively immunized JNPL3 P301L mice; format: in vivo, mouse; details: compared to control mice receiving adjuvant only
Description: JNPL3 P301L mice received a subcutaneous injection of 100 μl followed by a second injection 2 weeks later and then monthly thereafter (unless otherwise indicated). Vaccination started at 2-3 months of age and continued until the animals were 8-9 months of age at which time the animals were perfused and their organs collected for analysis. The mice went through a battery of sensorimotor tests at 5-6 months and again at 8-9 months of age prior to sacrifice. Control mice received the adjuvant alone. […]
Analysis of tissue sections was quantified with a Bioquant image analysis system. […] For quantitative image analysis of immunohistochemistry, the granular layer of the dentate gyrus was initially selected which consistently contained intraneuronal tau aggregates (pretangles and tangles). […] Four to five sections were analyzed per animal.

[1] = tested on: homozygous JNPL3 tau P301L mice; test: Traverse beam test, actively immunized JNPL3 P301L mice; format: in vivo, mouse; details: at 8 months of age, vs adjuvant alone
Description: (§1) JNPL3 P301L mice received a subcutaneous injection of 100 μl followed by a second injection 2 weeks later and then monthly thereafter (unless otherwise indicated). Vaccination started at 2-3 months of age and continued until the animals were 8-9 months of age at which time the animals were perfused and their organs collected for analysis. The mice went through a battery of sensorimotor tests at 5-6 months and again at 8-9 months of age prior to sacrifice. Control mice received the adjuvant alone.
Traverse Beam: This task tests balance and general motor coordination and function integration. Mice were assessed by measuring their ability to traverse a graded narrow wooden beam to reach a goal box (Torres et al., “Behavioural, Histochemical and Biochemical Consequences of Selective Immunolesions in Discrete Regions of the Basal Forebrain Cholinergic System,” Neuroscience 63:95-122 (1994), which is hereby incorporated by reference in its entirety). The mice were placed on a 1.1 cm wide beam that is 50.8 cm long and suspended 30 cm above a padded surface by two identical columns. […] Mice were placed on the beam in a perpendicular orientation to habituate and were then monitored for a maximum of 60 sec. The number of foot slips each mouse had before falling or reaching the goal box were recorded for each of four successive trials. Errors are defined as footslips and were recorded numerically.

[2] = tested on: homozygous JNPL3 tau P301L mice; test: Rotarod test, actively immunized JNPL3 P301L mice; format: in vivo, mouse; details: at 5-6 months of age and at 8-9 months of age, vs adjuvant alone
Description: as §1
Rotarod Test: Animals were placed onto the rod (diameter 3.6 cm) apparatus to assess differences in motor coordination and balance by measuring fore- and hindlimb motor coordination and balance (Rotarod 7650 accelerating model; Ugo Basile, Biological Research Apparatus, Varese, Italy). This procedure was designed to assess motor behavior without a practice confound. The animals were habituated to the apparatus by receiving training sessions of two trials, sufficient to reach a baseline level of performance. Then, the mice were tested three additional times, with increasing speed. During habituation, the rotarod was set at 1.0 rpm, which was gradually raised every 30 sec, and was also wiped clean with 30% ethanol solution after each session. A soft foam cushion was placed beneath the apparatus to prevent potential injury from falling. […]

Row | Substance | antibody response against the immunogen (JNPL3 P301L tangle mice) | antibody response against the tau epitope (JNPL3 P301L tangle mice) | pathological tau (PHF1 immunostaining) in the brain stem (pathological tau) | pathological tau (PHF1 immunostaining) in the dentate gyrus (pathological tau) | functional impairment, traverse beam (footslips) [1] | functional impairment, rotarod test [2]
1 | RENAKAKTDHGAEIVYKXPVVSGDTXPRHL [Tau379-408[Asp396, 404]] | robust antibody (IgG) response | – | – | – | – | –
2 | VRT*PPKS*PS [Tau229-237[P-Thr231-Ser235]] | robust antibody (IgG) response | – | – | – | – | –
3 | IGS*TE [Tau260-264[P-Ser262]] | robust IgG response against the immunogen | a good portion of the antibody response is also generated against the tau epitope | reduced the levels of pathological tau | reduced the levels of pathological tau | prevented functional impairment | prevented functional impairment
4 | SRT*PS*LP [Tau210-216[P-Thr212-Ser214]] | robust IgG and IgM immune response | – | – | – | – | –
